Literature values in US20250101002A1, “DEUTERATED INFIGRATINIB COMPOUNDS” (QED Therapeutics, Inc., priority 2023, published 2025).
Structures can show the parent of a compound that is named as a salt.

Conditions: cholangiocarcinoma indication

## CCN1CCN(c2ccc(Nc3cc(N(C)C(=O)Nc4c(Cl)c(OC)cc(OC)c4Cl)ncn3)cc2)CC1 [infigratinib monophosphate, Monophosphate Salt Form A of 3-(2,6-dichloro-3,5-dimethoxy-phenyl)-1-{6-4-(4-ethyl-piperazin-1-yl)-phenylaminol-pyrimidin-4-yl}-1-methyl-urea]
Infigratinib monophosphate dosed at 125 mg
  common adverse reactions: nail toxicity, stomatitis, dry eye, fatigue, alopecia, palmar-plantar erythrodyesthesia syndrome, arthralgia, dysgeusia, constipation, abdominal pain, dry mouth, eyelash changes, diarrhea, dry skin, decreased appetite, blurred vision, and vomiting
Infigratinib monophosphate
  additional adverse reactions observed in corresponding clinical trials: ocular toxicity, hyperphosphatemia and soft tissue mineralization, infections, anemia, pyrexia, abdominal pain, hypercalcemia, and sepsis
